Values of other authors as cited in US20190201327A1 (AMPERSAND BIOPHARMACEUTICALS, INC., priority 2017, published 2019).

System: neovascularization

In the case of CC1=C(CO)C(=O)O[C@@H]([C@@H](C)[C@H]2CC[C@H]3[C@@H]4C[C@H]5O[C@]56[C@@H](O)C(N=[N+]=[N-])CC(=O)[C@]6(C)[C@H]4CC[C@]23C)C1 (stereo partly shown) [3-azido WFA, 3-azido Withaferin A], the neovascularization in vivo is given as “abrogated neovascularization in vivo in a dose dependent manner”.
